Laboratory results as given in ChEMBL document CHEMBL1151969, “Melanin synthesis inhibitors from Lespedeza floribunda” (J Nat Prod, 2009).

Tests used:
[1] = Cytotoxicity against NHEM cells assessed as cell viability after 72 hrs by WST-8 assay; type: cell-based; conditions: human
[2] = Inhibition of melanin synthesis in NHEM cells assessed as [14C]thiouracil incorporation after 72 hrs by liquid scintillation counting; type: functional, cell-based, Homo sapiens

Row | IC50 ([2]; Homo sapiens, NHEM, 72 h) [µM] | IC50 ([2]; nhem) [µM] | SMILES | Activity [1]
1 | 2.52 | – | CC(C)=CCc1cc2c(c(CC=C(C)C)c1O)O[C@H](c1ccc(O)cc1)CC2=O | Non-toxic
2 | – | 1.02 | CC(C)=CCc1c(O)c(CC=C(C)C)c2c(c1O)C(=O)C[C@@H](c1cc3c(cc1O)OC(C)(C)C=C3)O2 (stereo in doubt) [EUCHRENONE A3] | –
3 | 1.51 | – | CC(C)=CCc1c(O)c(CC=C(C)C)c2c(c1O)C(=O)C[C@@H](c1cc3c(cc1O)OC(C)(C)C=C3)O2 (stereo in doubt; 45) [EUCHRENONE A3] | Non-toxic
4 | 1.21 | – | CC(C)=CCc1cc([C@@H]2CC(=O)c3c(O)c(CC=C(C)C)c(O)c(CC=C(C)C)c3O2)ccc1O [AMORILIN] | –
5 | 3.6 | – | CC(C)=CCc1cc([C@@H]2CC(=O)c3c(O)c(CC=C(C)C)c(O)c(CC=C(C)C)c3O2)cc(O)c1O [AMORISIN] | –
6 | 103 | – | OC[C@H]1O[C@@H](Oc2ccc(O)cc2)[C@H](O)[C@@H](O)[C@@H]1O [ARBUTIN] | –
7 | 2.7 | – | CC(C)=CCc1cc2c(cc1O)O[C@H](c1ccc(O)cc1)CC2=O [BAVACHIN] | Non-toxic
8 | 8.41 | – | CC(C)=CCc1c(O)c2c(c3c1OC(C)(C)C=C3)O[C@H](c1ccc(O)cc1)CC2=O [CAJAFLAVANONE] | Non-toxic
9 | 3.84 | – | CC(C)=CCc1c(O)ccc2c1O[C@H]1c3ccc(O)c(CC=C(C)C)c3OC[C@@H]21 [ERYBRAEDIN A] | Non-toxic
10 | 2 | – | CC(C)=CCc1cc2c(cc1O)OC[C@H]1c3ccc(O)c(CC=C(C)C)c3O[C@@H]21 [ERYBRAEDIN C] | Non-toxic
11 | 2.93 | – | CC(C)=CCc1c(O)ccc2c1OC[C@H]1c3ccc4c(c3O[C@@H]21)C=CC(C)(C)O4 [ERYBREADIN B] | Non-toxic
12 | 1.84 | – | CC(C)=CCc1cc2c(cc1O)OC[C@H]1c3ccc4c(c3O[C@@H]21)C=CC(C)(C)O4 [FOLITENOL] | Non-toxic
13 | 29.2 | – | O=c1c(-c2ccc(O)cc2)coc2cc(O)cc(O)c12 [GENISTEIN] | Non-toxic
14 | 2.2 | – | Oc1ccc(O)cc1 [HYDROQUINONE] | –
15 | 7.8 | – | CC(C)=CCc1cc([C@@H]2CC(=O)c3c(O)c(CC=C(C)C)c(O)c(CC=C(C)C)c3O2)c(O)cc1O [LESPEDEZAFLAVANONE H] | –
16 | 3.96 | – | COc1ccc([C@@H]2CC(=O)c3cc(CC=C(C)C)c(O)c(CC=C(C)C)c3O2)cc1 [LESPEFLORIN A1] | Non-toxic
17 | 3.86 | – | COc1ccc([C@@H]2CC(=O)c3ccc(O)c(CC=C(C)C)c3O2)cc1 [LESPEFLORIN A2] | Non-toxic
18 | 1.5 | – | CC(C)=CCc1cc2c(c(CC=C(C)C)c1O)O[C@H](c1ccc3c(c1)C=CC(C)(C)O3)CC2=O [LESPEFLORIN A3] | Non-toxic
19 | 4.93 | – | COc1cc(O)ccc1[C@@H]1CC(=O)c2c(O)cc3c(c2O1)C=CC(C)(C)O3 [LESPEFLORIN A4] | Non-toxic

Row | IC50 ([2]; Homo sapiens, NHEM, 72 h) [µM] | IC50 ([2]; nhem) [µM] | SMILES | Activity [1]
20 | 2.87 | – | CC(C)=CCc1cc([C@H]2Oc3cc(O)c(CC=C(C)C)cc3C(=O)[C@@H]2O)ccc1O [LESPEFLORIN B1] | Non-toxic
21 | 2.19 | – | CC(C)=CCc1cc2c(c(CC=C(C)C)c1O)O[C@H](c1ccc(O)cc1)[C@@H](O)C2=O [LESPEFLORIN B2] | Non-toxic
22 | 0.68 | – | CC(C)=CCc1cc([C@H]2Oc3c(cc(CC=C(C)C)c(O)c3CC=C(C)C)C(=O)[C@@H]2O)ccc1O [LESPEFLORIN B3] | Non-toxic
23 | 1.23 | – | CC(C)=CCc1cc([C@H]2Oc3c(CC=C(C)C)c(O)c(CC=C(C)C)c(O)c3C(=O)[C@@H]2O)ccc1O [LESPEFLORIN B4] | Non-toxic
24 | > 146 | – | CC(C)=CCc1cc(C(=O)[C@@H](O)Cc2ccc(O)cc2)c(O)cc1O [LESPEFLORIN C1] | Non-toxic
25 | 28.1 | – | COc1ccc(C[C@H](O)C(=O)c2cc(CC=C(C)C)c(O)cc2O)cc1 [LESPEFLORIN C2] | Non-toxic
26 | 1.68 | – | COc1cc(O)c(CC=C(C)C)cc1C(=O)[C@@H](O)Cc1ccc(O)cc1 [LESPEFLORIN C3] | Non-toxic
27 | > 135 | – | COc1ccc(C[C@H](O)C(=O)c2cc(CC=C(C)C)c(O)cc2OC)cc1 [LESPEFLORIN C4] | Non-toxic
28 | > 135 | – | CC(C)=CCc1cc(C(=O)[C@@H](O)Cc2ccc(O)cc2)c(O)c(C)c1O [LESPEFLORIN C5] | Non-toxic
29 | 22 | – | CC(C)=CCc1cc(C(=O)[C@@H](O)Cc2ccc(O)cc2)c(O)c(CC=C(C)C)c1O [LESPEFLORIN C6] | Non-toxic
30 | 3.78 | – | COc1cc2c(cc1C(=O)[C@@H](O)Cc1ccc(O)cc1)C=CC(C)(C)O2 [LESPEFLORIN C7] | Non-toxic
31 | 1.47 | – | COc1c([C@@H]2COc3c(ccc(O)c3CC=C(C)C)C2=O)ccc(O)c1CC=C(C)C [LESPEFLORIN D1] | Non-toxic
32 | 4.29 | – | COc1c(O)ccc2c1OCC(c1ccc(O)c(OC)c1OC)=C2 [LESPEFLORIN E1] | Non-toxic
33 | 10.8 | – | COc1c(O)ccc(-c2cc3ccc(O)c(OC)c3o2)c1OC [LESPEFLORIN F1] | Non-toxic
34 | 8.27 | – | COc1cc2c(CO)c(-c3ccc(O)cc3O)oc2c(CC=C(C)C)c1O [LESPEFLORIN F2] | Non-toxic
35 | 3.73 | – | COc1cc2c(cc1O)O[C@H]1c3ccc(O)c(CC=C(C)C)c3OC[C@@H]21 [LESPEFLORIN G1] | Non-toxic
36 | 2.07 | – | COc1c(O)cc2c(c1CC=C(C)C)O[C@H]1c3cc(CC=C(C)C)c(O)cc3OC[C@@H]21 [LESPEFLORIN G2] | Non-toxic
37 | 2.03 | – | COc1c(O)cc2c(c1CC=C(C)C)O[C@H]1c3c(cc(O)c(CC=C(C)C)c3OC)OC[C@@H]21 [LESPEFLORIN G3] | Non-toxic
38 | 3.24 | – | CC(C)=CCc1cc2c(cc1O)OC[C@H]1c3cc(C)c(O)c(CC=C(C)C)c3O[C@@H]21 [LESPEFLORIN G4] | Non-toxic

Row | IC50 ([2]; Homo sapiens, NHEM, 72 h) [µM] | IC50 ([2]; nhem) [µM] | SMILES | Activity [1]
39 | 1.52 | – | CC(C)=CCc1c(O)c(C)cc2c1O[C@H]1c3ccc(O)c(CC=C(C)C)c3OC[C@@H]21 [LESPEFLORIN G5] | Non-toxic
40 | 6.16 | – | COc1c(C)cc2c(c1CC=C(C)C)O[C@H]1c3ccc(O)cc3OC[C@@H]21 [LESPEFLORIN G6] | Non-toxic
41 | 6.02 | – | COc1cc2c(c(CC=C(C)C)c1O)O[C@H]1c3ccc(O)cc3OC[C@@H]21 [LESPEFLORIN G7] | Non-toxic
42 | 1.63 | – | COc1ccc2c(c1)OC[C@H]1c3cc(O)c(OC)c(CC=C(C)C)c3O[C@@H]21 [LESPEFLORIN G8] | Non-toxic
43 | 8.38 | – | COc1ccc2c(c1)OC[C@H]1c3cc(OC)c(O)c(CC=C(C)C)c3O[C@@H]21 [LESPEFLORIN G9] | Non-toxic
44 | 1.44 | – | CC(C)=CCc1c(O)c(C)cc2c1O[C@H]1c3ccc(O)cc3OC[C@@H]21 [LESPEFLORIN G10] | Non-toxic
45 | 2.9 | – | CC(C)=CCc1cc2c(cc1O)OC[C@H]1c3cc(O)c4c(c3O[C@@H]21)C=CC(C)(C)O4 [LESPEFLORIN G11] | Non-toxic
46 | 8.34 | – | COc1ccc2c(c1)OC[C@H]1c3cc(O)c4c(c3O[C@@H]21)C=CC(C)(C)O4 [LESPEFLORIN G12] | Non-toxic
47 | 27 | – | COc1ccc2c(c1)OCc1c-2oc2c(CC=C(C)C)c(O)c(O)cc12 [LESPEFLORIN H1] | Non-toxic
48 | 1.48 | – | COc1ccc2c(c1)OCc1c-2oc2c3c(c(O)cc12)OC(C)(C)C=C3 [LESPEFLORIN H2] | Non-toxic
49 | 3.21 | – | CC(C)=CCc1cc2c(cc1O)oc(=O)c1c3cc(O)c(O)cc3oc21 [LESPEFLORIN I1] | Non-toxic
50 | 28.3 | – | CC(C)=CCc1cc2c(cc1O)oc(=O)c1c3cc(O)c(O)c(CC=C(C)C)c3oc21 [LESPEFLORIN I2] | Non-toxic
51 | 27.3 | – | COc1ccc2c(c1)oc(=O)c1c3cc(O)c(O)c(CC=C(C)C)c3oc21 [LESPEFLORIN I3] | Non-toxic
52 | 39.6 | – | CC(C)=CCc1cc(-c2oc3c(CC=C(C)C)c(O)c(O)cc3c2C(=O)c2cc3c(c(CC=C(C)C)c2O)O[C@H]2c4ccc(O)c(CC=C(C)C)c4OC[C@@H]32)c(O)cc1O [LESPEFLORIN J1] | Non-toxic
53 | > 52.8 | – | COc1ccc(-c2oc3c(CC=C(C)C)c(O)c(O)cc3c2C(=O)c2cc3c(c(CC=C(C)C)c2O)O[C@H]2c4ccc(O)c(CC=C(C)C)c4OC[C@@H]32)c(O)c1 [LESPEFLORIN J2] | Non-toxic
54 | 37.7 | – | CC(C)=CCc1cc(-c2oc3c(CC=C(C)C)c(O)c(O)cc3c2C(=O)c2cc3c(c(CC=C(C)C)c2O)O[C@H]2c4cc(CC=C(C)C)c(O)cc4OC[C@@H]32)c(O)cc1O [LESPEFLORIN J3] | Non-toxic
55 | > 52.8 | – | COc1ccc(-c2oc3c(CC=C(C)C)c(O)c(O)cc3c2C(=O)c2cc3c(c(CC=C(C)C)c2O)O[C@H]2c4cc(CC=C(C)C)c(O)cc4OC[C@@H]32)c(O)c1 [LESPEFLORIN J4] | Non-toxic
56 | 2.59 | – | CC(C)=CCc1cc([C@@H]2CC(=O)c3c(cc(O)c(CC=C(C)C)c3O)O2)ccc1O [MACARANGAFLAVANONE B] | Non-toxic
57 | 0.98 | – | CC(C)=CCc1cc([C@@H]2CC(=O)c3cc(CC=C(C)C)c(O)c(CC=C(C)C)c3O2)ccc1O [PROSTRATOL] | Non-toxic
